For assay [1], the system named is P70S6K (Thr389) phosphorylation (mTORC1) in MDA-MB-468 cells. Description: Cell based AlphaLISA assay, mTOR kinase cellular assay: inhibition of p-P70S6K (T389) in MDA-MB-468 cells. As to conditions: Homo sapiens, read-out: pIC50 for Inhibition of mTORC1 and mTORC2 Substarte Phosphorylation p-P70S6K-(T389) (converted). The protocol: Cell Based AlphaLISA Assays for Determining IC50 For Inhibition of P-Akt (S473), P-4E-BP1 (T37/46), and P-P70S6K (T389) in MDA-MB-468 Cells
mTOR Kinase Cellular Assay
To measure functional activity of mTORC1 and mTORC2 in cells the phosphorylation of 4EBP1 (Thr37/46) and P70S6K (Thr389), and AKT1/2/3 (Ser473) was monitored using AlphaLisa SureFire Ultra Kits (Perkin Elmer). MDA-MB-468 cells (ATCC® HTB-132) were cultured in 96-well tissue culture plates and treated with compounds in the disclosure at concentrations varying from 0.017-1,000 nM for two to four hours at 37° C. Incubations were terminated by removal of the assay buffer and addition of lysis buffer provided with the assay kit. Samples were processed according to the manufacturer's instructions. The Alpha signal from the respective phosphoproteins was measured in duplicate using a microplate reader (Envision, Perkin-Elmer or Spectramax M5, Molecular Devices). Inhibitor concentration response curves were analyzed using normalized IC50 regression curve fitting with control based normalization.

Assay [2] relates to AKT1/2/3 (Ser473) phosphorylation (mTORC2) in MDA-MB-468 cells. The assay can be described thus: Cell based AlphaLISA assay, mTOR kinase cellular assay: inhibition of p-Akt (S473) in MDA-MB-468 cells. The following applies: Homo sapiens, read-out: pIC50 for Inhibition of mTORC1 and mTORC2 Substarte Phosphorylation p-AKT1/2/3-(S473) (converted). An outline of the steps:
(§1)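 MDA-MB-468 cells treated with compound at 0.017-1,000 nM for two to four hours at 37° C, then lysed. Phospho-AKT1/2/3 S473, 4EBP1 T37/46 and P70S6K T389 quantified by AlphaLISA SureFire Ultra in duplicate; IC50 from normalized regression with control-based normalization.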

Assay [3] has as its system 4EBP1 (Thr37/46) phosphorylation (mTORC1) in MDA-MB-468 cells. Description: Cell based AlphaLISA assay, mTOR kinase cellular assay: inhibition of p-4E-BP1 (T37/46) in MDA-MB-468 cells. As to conditions: Homo sapiens, read-out: pIC50 for Inhibition of mTORC1 and mTORC2 Substarte Phosphorylation p-4E-BP1-(T37/46) (converted). An outline of the steps:
as §1

The text below walks through data of US20230233569A1 (Revolution Medicines, Inc., priority 2020, published 2023).

For `CO[C@H]1C[C@@H]2CC[C@@H](C)[C@@](O)(O2)C(=O)C(=O)N2CCCC[C@H]2C(=O)O[C@H]([C@H](C)C[C@@H]2CC[C@@H](OC(=O)NCCOCCC(=O)NCc3cnc(N4CCN(C(=O)CCOCCN5CCN(c6ncc(C(=O)NCCCCn7nc(-c8cnc9[nH]ccc9c8)c8c(N)ncnc87)cn6)CC5)CC4)nc3)[C@H](OC)C2)CC(=O)[C@H](C)/C=C(\C)[C@@H](O)[C@@H](OC)C(=O)[C@H](C)C[C@H](C)/C=C/C=C/C=C/1C` [Example 68], the IC50 in assay [1] is at most 1 nM; in assay [2], over 1000 nM; in assay [3] it was at most 3.16 nM.
For the molecule `CO[C@H]1C[C@@H]2CC[C@@H](C)[C@@](O)(O2)C(=O)C(=O)N2CCCC[C@H]2C(=O)O[C@H]([C@H](C)C[C@@H]2CC[C@@H](OC(=O)NCCOCCOCCOCCOCCOCCOCCOCCOCC(=O)N3CCc4cc(Cn5nc(-c6ccc7oc(N)nc7c6)c6c(N)ncnc65)ccc4C3)[C@H](OC)C2)CC(=O)[C@H](C)/C=C(\C)[C@@H](O)[C@@H](OC)C(=O)[C@H](C)C[C@H](C)/C=C/C=C/C=C/1C` [Example 71], the figures for the IC50 in assay [1], in assay [2] and in assay [3] were at most 1 nM, 3.16 to 31.6 nM and at most 3.16 nM, respectively.
Regarding `CO[C@H]1C[C@@H]2CC[C@@H](C)[C@@](O)(O2)C(=O)C(=O)N2CCCC[C@H]2C(=O)O[C@H]([C@H](C)C[C@@H]2CC[C@@H](OC(=O)NCCOCCOCCOCCOCCC(=O)NCCOCCOCCOCCOCCC(=O)N3CCc4cc(Cn5nc(-c6ccc7oc(N)nc7c6)c6c(N)ncnc65)ccc4C3)[C@H](OC)C2)CC(=O)[C@H](C)/C=C(\C)[C@@H](O)[C@@H](OC)C(=O)[C@H](C)C[C@H](C)/C=C/C=C/C=C/1C` [Example 15], the IC50 in assay [1] is at most 1 nM; in assay [2], 3.16 to 31.6 nM; in assay [3], at most 3.16 nM.
Taken in the same sequence, the figures for `CO[C@H]1C[C@@H]2CC[C@@H](C)[C@@](O)(O2)C(=O)C(=O)N2CCCC[C@H]2C(=O)O[C@H]([C@H](C)C[C@@H]2CC[C@@H](OC(=O)NCCOCCC(=O)NCc3cnc(N4CCN(C(=O)CCOCCN5CCN(c6ncc(C(=O)N7CCc8cc(Cn9nc(-c%10ccc%11oc(N)nc%11c%10)c%10c(N)ncnc%109)ccc8C7)cn6)CC5)CC4)nc3)[C@H](OC)C2)C[C@@H](OC)[C@H](C)/C=C(\C)[C@@H](O)[C@@H](OC)C(=O)[C@H](C)C[C@H](C)/C=C/C=C/C=C/1C` [Example 70] were at most 1 nM, 31.6 to 1000 nM and at most 3.16 nM.
Regarding `CO[C@H]1C[C@@H]2CC[C@@H](C)[C@@](O)(O2)C(=O)C(=O)N2CCCC[C@H]2C(=O)O[C@H]([C@H](C)C[C@@H]2CC[C@@H](OC(=O)N3CCc4nc(N5CCN(c6ncc(C(=O)N7CCN(c8ncc(C(=O)N9CCc%10cc(Cn%11nc(-c%12ccc%13oc(N)nc%13c%12)c%12c(N)ncnc%12%11)ccc%10C9)cn8)CC7)cn6)CC5)ncc4C3)[C@H](OC)C2)CC(=O)[C@H](C)/C=C(\C)[C@@H](O)[C@@H](OC)C(=O)[C@H](C)C[C@H](C)/C=C/C=C/C=C/1C` [Example 62], the IC50 is 1 to 10 nM in assay [1], over 1000 nM in assay [2] and over 1000 nM in assay [3].
Regarding `CO[C@H]1C[C@@H]2CC[C@@H](C)[C@@](O)(O2)C(=O)C(=O)N2CCCC[C@H]2C(=O)O[C@H]([C@H](C)C[C@@H]2CC[C@@H](OC(=O)NCCOCCOCCOCCOCCOCCOCCC(=O)N3CCC(N4CCC(C(=O)N5CCc6cc(Cn7nc(-c8ccc9oc(N)nc9c8)c8c(N)ncnc87)ccc6C5)CC4)CC3)[C@H](OC)C2)CC(=O)[C@H](C)/C=C(\C)[C@@H](O)[C@@H](OC)C(=O)[C@H](C)C[C@H](C)/C=C/C=C/C=C/1C` [Example 48], the IC50 was at most 1 nM in assay [1], 3.16 to 31.6 nM in assay [2] and at most 3.16 nM in assay [3].
Regarding `CO[C@H]1C[C@@H]2CC[C@@H](C)[C@@](O)(O2)C(=O)C(=O)N2CCCC[C@H]2C(=O)O[C@H]([C@H](C)C[C@@H]2CC[C@@H](OC(=O)NCc3cnc(N4CCN(C(=O)CN(C)CC(=O)NCCOCCOCCC(=O)NCCCCn5nc(-c6ccc7oc(N)nc7c6)c6c(N)ncnc65)CC4)nc3)[C@H](OC)C2)C[C@@H](OC)[C@H](C)/C=C(\C)[C@@H](O)[C@@H](OC)C(=O)[C@H](C)C[C@H](C)/C=C/C=C/C=C/1C` [Example 104], the IC50 in assay [1] was at most 1 nM; in assay [2], over 1000 nM; in assay [3] it was at most 3.16 nM.
For `CO[C@H]1C[C@@H]2CC[C@@H](C)[C@@](O)(O2)C(=O)C(=O)N2CCCC[C@H]2C(=O)O[C@H]([C@H](C)C[C@@H]2CC[C@@H](OC(=O)NCc3cnc(N4CCN(c5ncc(C(=O)NCCOCCOCCOCCOCCC(=O)N6CCc7cc(Cn8nc(-c9ccc%10oc(N)nc%10c9)c9c(N)ncnc98)ccc7C6)cn5)CC4)nc3)[C@H](OC)C2)CC(=O)[C@H](C)/C=C(\C)[C@@H](O)[C@@H](OC)C(=O)[C@H](C)C[C@H](C)/C=C/C=C/C=C/1C` [Example 27], the IC50 was at most 1 nM in assay [1], 3.16 to 31.6 nM in assay [2] and at most 3.16 nM in assay [3].
On the same counts, the results for `CO[C@H]1C[C@@H]2CC[C@@H](C)[C@@](O)(O2)C(=O)C(=O)N2CCCC[C@H]2C(=O)O[C@H]([C@H](C)C[C@@H]2CC[C@@H](OC(=O)NCCOCCOCCOCCOCCOCCOCCOCCOCCC(=O)N3CCC(n4nc(-c5ccc6oc(N)nc6c5)c5c(N)ncnc54)CC3)[C@H](OC)C2)CC(=O)[C@H](C)/C=C(\C)[C@@H](O)[C@@H](OC)C(=O)[C@H](C)C[C@H](C)/C=C/C=C/C=C/1C` [Example 19] are at most 1 nM, at most 3.16 nM and at most 3.16 nM.
For the molecule `CO[C@H]1C[C@@H]2CC[C@@H](C)[C@@](O)(O2)C(=O)C(=O)N2CCCC[C@H]2C(=O)O[C@H]([C@H](C)C[C@@H]2CC[C@@H](OC(=O)NCCOCCOCCOCCOCCC(=O)NCc3cnc(N4CCN(c5ncc(C(=O)N6CCc7cc(Cn8nc(-c9ccc%10oc(N)nc%10c9)c9c(N)ncnc98)ccc7C6)cn5)CC4)nc3)[C@H](OC)C2)CC(=O)[C@H](C)/C=C(\C)[C@@H](O)[C@@H](OC)C(=O)[C@H](C)C[C@H](C)/C=C/C=C/C=C/1C` [Example 46], the IC50 in assay [1] is at most 1 nM; in assay [2], 3.16 to 31.6 nM; in assay [3] it was at most 3.16 nM.
For the molecule `CO[C@H]1C[C@@H]2CC[C@@H](C)[C@@](O)(O2)C(=O)C(=O)N2CCCC[C@H]2C(=O)O[C@H]([C@H](C)C[C@@H]2CC[C@@H](OC(=O)NCCOCCOCCOCCOCCC(=O)NCCOCCOCCOCCOCCC(=O)N3CCc4cc(Cn5nc(-c6ccc7oc(N)nc7c6)c6c(N)ncnc65)ccc4C3)[C@H](OC)C2)C[C@@H](O)[C@H](C)/C=C(\C)[C@@H](O)[C@@H](OC)C(=O)[C@H](C)C[C@H](C)/C=C/C=C/C=C/1C` [Example 16], the IC50 was at most 1 nM in assay [1], at most 3.16 nM in assay [2] and at most 3.16 nM in assay [3].
For `CO[C@H]1C[C@@H]2CC[C@@H](C)[C@@](O)(O2)C(=O)C(=O)N2CCCC[C@H]2C(=O)O[C@H]([C@H](C)C[C@@H]2CC[C@@H](OC(=O)NCc3cnc(N4CCN(C(=O)CCOCCN5CCN(c6ncc(C(=O)N7CCc8cc(Cn9nc(-c%10ccc%11oc(N)nc%11c%10)c%10c(N)ncnc%109)ccc8C7)cn6)CC5)CC4)nc3)[C@H](OC)C2)CC(=O)[C@H](C)/C=C(\C)[C@@H](O)[C@@H](OC)C(=O)[C@H](C)C[C@H](C)/C=C/C=C/C=C/1C` [Example 51], the IC50 in assay [1] was at most 1 nM; in assay [2], at most 3.16 nM; in assay [3] it was at most 3.16 nM.
